According to article PMC8227285, “Functional Characterization of the Dopaminergic Psychostimulant Sydnocarb as an Allosteric Modulator of the Human Dopamine Transporter” (Biomedicines, 2021):
Like-named read-outs stand apart in the source and are kept apart here.

Columns and labels:
[1] = target: T1, Y156F-DAT (Homo sapiens, UniProt Q01959, Y156F); conditions: cited from earlier work
T1 construct: expressed in transfected cells; host or cells: COS-7

[2] = target: T2, DAT-XC/W84C mutant (Homo sapiens, UniProt Q01959, C306A/W84C); test: Substituted cysteine scanning (SCAM) MTSEA-biotin biotinylation in HEK-293 cells; format: cell-based
T2 construct: expressed in transfected cells; host or cells: HEK-293
T2 sequence (Q01959 1-620 W84C/C306A): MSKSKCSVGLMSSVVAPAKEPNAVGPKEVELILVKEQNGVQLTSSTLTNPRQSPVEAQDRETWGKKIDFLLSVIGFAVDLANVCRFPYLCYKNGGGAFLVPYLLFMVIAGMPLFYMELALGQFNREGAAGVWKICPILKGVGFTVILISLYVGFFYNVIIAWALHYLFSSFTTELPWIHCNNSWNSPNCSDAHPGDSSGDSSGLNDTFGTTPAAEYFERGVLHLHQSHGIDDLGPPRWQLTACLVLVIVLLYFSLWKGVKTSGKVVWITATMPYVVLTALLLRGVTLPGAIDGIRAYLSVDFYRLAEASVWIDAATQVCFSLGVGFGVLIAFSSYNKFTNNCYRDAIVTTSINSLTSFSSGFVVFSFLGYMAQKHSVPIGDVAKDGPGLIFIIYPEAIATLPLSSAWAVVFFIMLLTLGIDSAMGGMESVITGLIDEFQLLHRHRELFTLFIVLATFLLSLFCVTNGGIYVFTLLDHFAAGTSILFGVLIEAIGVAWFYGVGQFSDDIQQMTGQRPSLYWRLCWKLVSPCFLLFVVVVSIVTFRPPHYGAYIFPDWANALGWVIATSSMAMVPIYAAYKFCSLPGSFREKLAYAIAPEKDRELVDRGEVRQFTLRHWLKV
Protocol: Briefly, HEK-293 cells were transiently transfected and cultured to confluency in a 6-well plate. The cells were washed with ice-cold PBS-CM (pH 7.4) twice and incubated at 4 °C with vehicle or sydnocarb (0.5 or 2 μM) for 10 min, followed by the addition of MTSEA-biotin (125 μM, final concentration). After 10-min incubation at 4 °C, the biotinylation was quenched by aspirating the liquid and washing the cells with 1-mM DTT in PBS-CM, followed by a final wash with PBS-CM only. The cells were lysed in 600 μL of TNE lysis buffer (pH 7.4) containing protease inhibitors (100×) for 40 min at 4 °C. The cells were collected and centrifuged at 12,000× g for 10 min at 4 °C. The supernatant was collected, of which 30 μL was mixed with DTT (0.5 M, 5 μL) and LDS Nu-page (15 μL) for the total lysate sample, and saved at −20 °C. Four hundred and fifty microliters of the supernatant were incubated overnight at 4 °C with 50 μL of 50% slurry of high-capacity neutravidin agarose resin. The beads containing “biotinylated” proteins were washed with ice-cold TNE lysis three times, followed by a final wash with PBS-CM, and then mixed with LDL Nu-page (15 μL), DTT (0.5 M, 5 μL), and water (30 μL). […] Densities of he DAT bands were analyzed with an Odyssey imaging system and associated ImageStudio software (LI-COR, Lincoln, NE, USA).

[3] = target: T3, Y335A-DAT (Homo sapiens, UniProt Q01959, Y335A); conditions: cited from earlier work
T3 construct: expressed in transfected cells; host or cells: COS-7

[4] = target: T4, hDAT (Homo sapiens, UniProt Q01959); test: [3H]-dopamine transport inhibition assay in transiently transfected COS-7 cells; format: cell-based; conditions: for IC50: mean ± SEM
T4 construct: expressed in transfected cells; host or cells: COS-7
Protocol: (§1) Transiently transfected COS-7 cells (expressing hDAT, hNET, or hSERT) were plated in 96-well plates. Uptake experiments were performed 2 days later. The media was removed, and the cells were washed with PBS-CM. Following washing, the cells were incubated for 10 min with various concentrations of sydnocarb, and the uptake was initiated by adding [^3H]-dopamine to a final concentration of 25 nM. The uptake was allowed to continue for 10 min at room temperature and was terminated by washing twice with PBS-CM. The cells were solubilized in a scintillation cocktail and counted on a microplate scintillation and luminescence counter (PerkinElmer, Waltham, MA, USA). Data were fitted to a Hill equation by a nonlinear regression analysis to obtain the IC50 values.

[5] = target: T5, hNET (Homo sapiens, UniProt P23975); test: Radioactive neurotransmitter transport inhibition assay in transiently transfected COS-7 cells; format: cell-based; conditions: hNET transiently transfected COS-7 cells; mean ± SEM, three independent experiments (Figure 1A)
T5 construct: expressed in transfected cells; host or cells: COS-7
Protocol: as §1

[6] = target: T6, hSERT (Homo sapiens, UniProt P31645); test: as above; format: cell-based; conditions: hSERT transiently transfected COS-7 cells, mean ± SEM, three independent experiments (Figure 1A)
T6 construct: expressed in transfected cells; host or cells: COS-7
Protocol: as §1

[7] = target: T7, wild-type DAT (Homo sapiens, UniProt Q01959); test: [3H]-DA uptake kinetic assay in COS-7 cells (Michaelis-Menten); format: cell-based; conditions: vehicle 634.8 ± 84.62, four independent experiments
T7 construct: expressed in transfected cells; host or cells: COS-7
Protocol: Transport assays were performed as described previously. Briefly, COS-7 cells were transfected and plated in 96-well plates. Uptake experiments were performed 2 days after transfection. The media was removed, and the cells were washed with PBS (137-mM NaCl, 2.7-mM KCl, 4.3-mM Na2HPO4, and 1.4-mM KH2PO4, pH 7.4) containing 0.1-mM CaCl2, 1-mM MgCl2, […], and […] (PBSCM). Following washing, a constant concentration of radiolabeled substrate (50-nM [^3H]-DA) and increasing concentrations of unlabeled substrate (0.05–100-μM DA) were added, and the uptake was allowed to continue for 10 min at room temperature. The uptake was terminated by washing twice with PBS-CM. The cells were solubilized in scintillation cocktail and counted on a microplate scintillation and luminescence counter (PerkinElmer, Waltham, MA, USA). Background was obtained from non-transfected cells and subtracted. Data were fitted to a Michaelis−Menten equation using nonlinear regression to obtain Km and Vmax.

[8] = target: T1, Y156F-DAT; test: DA uptake inhibition assay in COS-7 cells expressing DAT mutant; format: cell-based
Protocol: as §1

[9] = target: T3, Y335A-DAT; test: as above; format: cell-based
Protocol: as §1

T3 sequence (Q01959 whole entry Y335A): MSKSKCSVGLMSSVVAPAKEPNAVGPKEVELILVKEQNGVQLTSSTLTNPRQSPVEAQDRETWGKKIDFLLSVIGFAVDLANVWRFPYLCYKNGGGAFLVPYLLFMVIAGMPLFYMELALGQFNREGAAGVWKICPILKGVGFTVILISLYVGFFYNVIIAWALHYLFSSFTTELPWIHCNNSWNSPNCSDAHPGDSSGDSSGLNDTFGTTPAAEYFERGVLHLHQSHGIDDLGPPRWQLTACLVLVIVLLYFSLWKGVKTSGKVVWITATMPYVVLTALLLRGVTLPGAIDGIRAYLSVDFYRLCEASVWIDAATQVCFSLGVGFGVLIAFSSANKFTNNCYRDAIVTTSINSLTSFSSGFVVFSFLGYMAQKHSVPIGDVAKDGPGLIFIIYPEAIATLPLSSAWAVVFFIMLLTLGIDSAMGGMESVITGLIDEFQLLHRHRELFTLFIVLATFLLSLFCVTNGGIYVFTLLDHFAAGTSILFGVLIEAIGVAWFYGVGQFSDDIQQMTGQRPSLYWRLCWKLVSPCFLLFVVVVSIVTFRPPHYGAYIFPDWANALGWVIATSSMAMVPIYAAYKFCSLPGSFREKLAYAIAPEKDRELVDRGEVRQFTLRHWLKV
T4 sequence (Q01959 whole entry): as the sequence (Q01959 whole entry Y335A) above, with A335Y counted along it
T1 sequence (Q01959 whole entry Y156F): as the sequence (Q01959 whole entry Y335A) above, with Y156F, A335Y counted along it
T6 sequence (P31645 whole entry): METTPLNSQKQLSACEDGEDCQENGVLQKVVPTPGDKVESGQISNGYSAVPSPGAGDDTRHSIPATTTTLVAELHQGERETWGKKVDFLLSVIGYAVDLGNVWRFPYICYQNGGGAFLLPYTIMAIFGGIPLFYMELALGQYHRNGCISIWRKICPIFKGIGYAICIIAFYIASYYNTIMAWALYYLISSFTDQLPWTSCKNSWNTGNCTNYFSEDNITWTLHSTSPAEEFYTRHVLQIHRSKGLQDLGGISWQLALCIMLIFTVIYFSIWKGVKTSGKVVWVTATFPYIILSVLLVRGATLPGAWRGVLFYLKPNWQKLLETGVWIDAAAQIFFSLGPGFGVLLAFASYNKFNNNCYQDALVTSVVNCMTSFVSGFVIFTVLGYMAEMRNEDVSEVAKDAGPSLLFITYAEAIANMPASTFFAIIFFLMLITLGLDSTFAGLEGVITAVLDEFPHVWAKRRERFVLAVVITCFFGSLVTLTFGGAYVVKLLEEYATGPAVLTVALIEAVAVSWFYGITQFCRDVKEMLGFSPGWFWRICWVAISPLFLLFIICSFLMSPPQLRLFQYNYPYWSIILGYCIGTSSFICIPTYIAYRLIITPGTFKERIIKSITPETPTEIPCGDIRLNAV
T7 sequence (Q01959 whole entry): as the sequence (Q01959 whole entry Y335A) above, with A335Y counted along it
T5 sequence (P23975 whole entry): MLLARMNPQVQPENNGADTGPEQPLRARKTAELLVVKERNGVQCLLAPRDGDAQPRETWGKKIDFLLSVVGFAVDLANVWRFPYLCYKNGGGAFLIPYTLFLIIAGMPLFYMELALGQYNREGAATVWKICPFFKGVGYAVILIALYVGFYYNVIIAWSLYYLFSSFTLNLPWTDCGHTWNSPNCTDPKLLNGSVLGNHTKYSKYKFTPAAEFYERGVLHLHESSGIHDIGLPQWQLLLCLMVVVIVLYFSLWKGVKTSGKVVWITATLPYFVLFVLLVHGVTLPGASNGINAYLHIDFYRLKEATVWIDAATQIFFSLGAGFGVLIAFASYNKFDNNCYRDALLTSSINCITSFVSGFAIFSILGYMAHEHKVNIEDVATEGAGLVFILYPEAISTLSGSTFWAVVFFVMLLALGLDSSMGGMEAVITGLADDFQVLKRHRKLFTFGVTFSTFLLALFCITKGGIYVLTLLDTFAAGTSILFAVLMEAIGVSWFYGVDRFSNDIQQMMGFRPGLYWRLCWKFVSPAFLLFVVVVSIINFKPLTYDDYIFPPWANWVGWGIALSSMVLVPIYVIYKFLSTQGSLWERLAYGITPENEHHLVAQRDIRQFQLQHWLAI

In the case of CCCCN1[C@@H]2CC[C@H]1CC(OC(c1ccc(F)cc1)c1ccc(F)cc1)C2 (stereo partly shown) [JHW-007], the “effect of Y156F mutation on potency” value [1] is listed as “significantly reduced”.

In the case of COC(=O)[C@H]1[C@@H](OC(=O)c2ccccc2)C[C@@H]2CC[C@H]1N2C [cocaine], the “labeling of W84C with MTSEA-biotin” value ([2]; coincubation with 100 µM cocaine (negative control)) is listed as “not affected”, the “effect of Y156F mutation on binding affinities” value [1] is listed as “unaffected” and the “effect of Y335A mutation on potency” value [3] is listed as “markedly impaired”.

In the case of CC(Cc1ccccc1)[n+]1cc([N-]C(=O)Nc2ccccc2)on1 (stereo not shown) [sydnocarb], the IC50 ([4]; WT-DAT-transfected COS-7 cells, mutant comparison (Figure 6), three independent experiments, read-out: IC50, DA uptake inhibition) is reported as 439 ± 135 nM, the “fold more potent towards hDAT than towards hNET” value ([4]; from dose-response IC50 values) is reported as 70 fold and the “fold more potent towards hDAT than towards hSERT” value ([4]; from dose-response IC50 values) is reported as 1000 fold. The IC50 ([4]; hDAT transiently transfected COS-7 cells, three independent experiments (Figure 1A), listed as Sydnocarb, read-out: IC50, transport inhibition) was 493 ± 140 nM, the IC50 ([4]; hDAT transiently transfected COS-7 cells, three independent experiments (Figure 1A), read-out: IC50, transport inhibition) was 490 ± 140 nM and the IC50 [5] was 34900 ± 14100 nM. For the same compound, the IC50 [6] was 495000 ± 17000 nM, the IC50 ([6]; listed as Sydnocarb) was 495000 ± 17000 nM and the “Vmax of DAT-mediated [3H]-DA uptake” value ([7]; in the presence of 0.5 µM Sydnocarb) was 455.6 ± 89.6 femtomole/min/well. For the same compound, the “Vmax of DAT-mediated [3H]-DA uptake” value ([7]; in the presence of 2.0 µM Sydnocarb) was 195 ± 80.7 femtomole/min/well, the “biotinylation of W84C by MTSEA-biotin” value ([2]; coincubation with 1 µM sydnocarb, four independent experiments) was “significantly decreased” and the “change in potency, Y156F-DAT versus WT-DAT” value ([8]; COS-7 cells) was “no significant changes”. The IC50 ([8]; Y156F-DAT-transfected COS-7 cells, mean ± SEM, three independent experiments) was 262 ± 118 nM, the “reduction of potency for Y335A-DAT compared with WT-DAT” value ([9]; COS-7 cells) was 3.5 fold and the IC50 ([9]; Y335A-DAT-transfected COS-7 cells, mean ± SEM, three independent experiments) was 1420 ± 201 nM.
